Source: patent EP0329348B1, “2',3'-Dideoxy-2',2'-difluoronucleosides” (ELI LILLY AND COMPANY, priority 1988, dated 1989)
Converted amounts (≈) assume the structure as drawn.

Key:
Type in all cases: cell-based
[1] = test system: human leukemic cells (CCRF-CEM cell line); test: Cytotoxicity screen: growth inhibition of human leukemic cells; details: read-out: IC₅₀ (concentration giving 50% growth inhibition)
Excerpt: See, e.g., Miller et al., in J. Med. Chem. Vol. 20, No. 3 409 (1977) and Sweeney, et al., in Cancer Research 38, 2886 (1978).
The compounds of the present invention represented by Formula I are cytostatic in that they inhibit the growth of human leukemic cells (CCRF-CEM cell line). Table 1 below gives the results of such testing of compounds representative of those in Formula I. In the Table, column 1 gives the example number of the compound and column 2 the IC₅₀ (concentration giving 50% growth inhibition) in mcg/ml.

[2] = test system: HSV-2; test: Plaque-reduction study against HSV-2; details: HSV-2 plaque reduction
Protocol: The following plaque-reduction study provides a quantitative evaluation of inhibitors of virus multiplication and establishes the antiviral activity of a representative compound of the present invention. According to this study, susceptible cells (BSC-1, Hela, MDCK, etc.) were grown in 25 cm² Falcon flasks at 37°C in Medium 199 with 5 percent inactivated fetal bovine serum (FBS), penicillin (150 units/ml) and streptomycin (150 »g/ml). When confluent monolayers were formed, the growth medium was removed and 0.3 ml of an appropriate dilution of the virus was added to each flask. After adsorption for one hour at room temperature, the infected cell sheet was overlaid with equal parts of 1 percent Agarose and 2x Medium 199, 2.5 percent FBS, penicillin, and streptomycin. The compound to be tested was dissolved in dimethyl sulfoxide (DMSO) at a concentration of 10,000 »g/ml and an aliquot of the resulting solution was diluted to the desired concentration with the agar medium mixture. Flasks were incubated at 37°C until control flasks indicated optimum plaque size of about 2 to about 10 mm. A solution containing 10 percent formalin by volume and 2 percent sodium acetate by volume was added to each flask to inactivate the virus and fix the cell sheet to the plastic surface. The plaques were counted after staining the surrounding cell areas with crystal violet. […]

[3] = test system: HSV-1; test: Plaque-reduction study against HSV-1; details: HSV-1 plaque reduction
Protocol: The following plaque-reduction study provides a quantitative evaluation of inhibitors of virus multiplication and establishes the antiviral activity of a representative compound of the present invention. According to this study, susceptible cells (BSC-1, Hela, MDCK, etc.) were grown in 25 cm² Falcon flasks at 37°C in Medium 199 with 5 percent inactivated fetal bovine serum (FBS), penicillin (150 units/ml) and streptomycin (150 »g/ml). When confluent monolayers were formed, the growth medium was removed and 0.3 ml of an appropriate dilution of the virus was added to each flask. After adsorption for one hour at room temperature, the infected cell sheet was overlaid with equal parts of 1 percent Agarose and 2x Medium 199, 2.5 percent FBS, penicillin, and streptomycin. The compound to be tested was dissolved in dimethyl sulfoxide (DMSO) at a concentration of 10,000 »g/ml and an aliquot of the resulting solution was diluted to the desired concentration with the agar medium mixture. Flasks were incubated at 37°C until control flasks indicated optimum plaque size of about 2 to about 10 mm. A solution containing 10 percent formalin by volume and 2 percent sodium acetate by volume was added to each flask to inactivate the virus and fix the cell sheet to the plastic surface. The plaques were counted after staining the surrounding cell areas with crystal violet. Results from duplicate flasks at each concentration were averaged and compared with control flasks. The following degrees of inhibition against HSV-1 were observed.

[4] = test system: Friends leukemia virus; test: CPE inhibition in SC-1 cells infected with murine leukemia virus, XC cell overlay; details: SC1, 120 h, SC-1 cells from a feral mouse, XC cells added after 5 days, read-out: IC₅₀
Protocol: The following procedure was used to establish the efficacy of a representative compound of the present invention against Friends leukemia virus. SC-1 cells from a feral mouse were seeded subconfluently at 2-5 x 10³ cells per well in 96 microwell plates with complete MEM media plus 2 mcg/ml polybrene overnight at 37°C under a carbon dioxide atmosphere. The medium was removed. The cultures were infected with a proper dilution of murine leukemia virus (50 mcl/well) and were allowed to adsorb for about two hours at room temperature. After adsorption, the virus containing medium was removed and replaced with fresh complete MEM, both with and without dilutions of the compound of Example 1, and reincubated at 37°C under carbon dioxide for 5 days or until the cells reached confluence. The medium was removed and the cells were exposed for 10 seconds to a UV germicidal light. XC cells from a Rous sarcoma virus induced rat tumor cell line at a concentration of 5-8 x 10⁴ cells/well were added to the irradiated SC-1 monolayers. The cultures were incubated at 37°C under carbon dioxide for three days until CPE occurred in the control wells. Cultures were fixed with formalin and stained with crystal violet. The results were scored as CPE inhibition.

Structure (SMILES) | IC50 [1] [µg/mL] | Inhibition ([3]; concentration 25 (unit ug/ml)) [%] | further results
Cc1cn([C@@H]2O[C@H](CO)[C@@H](N=[N+]=[N-])C2(F)F)c(=O)[nH]c1=O [Example 4, β-1-(5-methyl-2,4-dioxo-1H,3H-pyrimidin-1-yl)-3-azido-2,3-dideoxy-2,2-difluororibose] | 23.4 (≈ 77.2 µM) | 39 | Inhibition ([2]; concentration 13.5 (unit ug/ml)): 50%
Nc1nc(N)c2ncn([C@@H]3O[C@H](CO)CC3(F)F)c2n1 [Example 2, β-1-(2,6-diamino-9H-purin-9-yl)-2,3-dideoxy-2,2-difluororibose] | 1.9 (≈ 6.64 µM) | – | Inhibition ([3]; concentration 3.1 (unit ug/ml)): 27%
Cc1cn([C@@H]2O[C@H](CO)CC2(F)F)c(=O)[nH]c1=O [Example 5, β-1-(5-methyl-2,4-dioxo-1H,3H-pyrimidin-1-yl)-2,3-dideoxy-2,2-difluororibose] | > 20 | 35 | –
Nc1nc2c(ncn2[C@@H]2O[C@H](CO)CC2(F)F)c(=O)[nH]1 [Example 3, β-1-(2-amino-6-oxo-9H-purin-9-yl)-2,3-dideoxy-2,2-difluororibose] | 8.5 (≈ 29.6 µM) | – | inhibition at 25 µg/mL ([2]; Human alphaherpesvirus 2, concentration 25 ug/ml): 21%
Nc1ccn([C@@H]2O[C@H](CO)CC2(F)F)c(=O)n1 [Example 1, β-1-(4-Amino-2-oxo-1H-pyrimidin-1-yl)-2,3-dideoxy-2,2-difluororibose] | 1.9 (≈ 7.69 µM) | – | IC50 [4]: 6.5 µg/mL (≈ 26.3 µM); inhibition at 15 µg/mL ([3]; Human alphaherpesvirus 1, concentration 15 ug/ml): 50%
